Where two headings read alike, the source gives them in different places.
Key:
[1] = system: VCaP cells; assay: Cellular growth inhibition assay for VCaP cells, CellTiter-Glo; assay type: cell-based, human; details: VCaP cells, 72 hours, CellTiter-Glo, read-out: GI50
Method: VCaP cells were purchased from American Type Cell Culture (ATCC Cat #CRL2876) and then seeded on poly-D-lysine coated, black clear-bottom 384-well plates at 5000/well in 25 μL Dulbecco's Modified Eagle Medium (DMEM) supplemented with 10% w/w Fetal bovine serum (FBS) and 1% w/w Pen-Strep. Pen-Strep is a commercially available mixture of penicillin G and streptomycin, which is used in mammalian cell culture media to prevent bacterial contamination. Dulbecco's Modified Eagle Medium (DMEM) supplemented with 10% w/w fetal bovine serum (FBS) and 1% w/w Pen-Strep is herein referred to as Treatment Medium. Following seeding of cells in the plates, the plates were spun at 300×g for 30 seconds, then equilibrated to room temperature for 30 minutes, and then deposited in a humidified tissue culture incubator maintained at 37° C. with 5% CO2.
(§1) At 24 hours after seeding of the cells, dilutions of test compound were prepared in DMSO and dissolved in Treatment Medium, to achieve a final DMSO concentration of 0.5% w/w, thereby providing the Test Compound Solution. A 25 μL aliquot of the Test Compound Solution was added to cells in the well plates. An equal volume of a solution containing DMSO and Treatment Medium was used as a negative control. Following treatment of cells with Test Compound Solution or said equal volume of a solution containing DMSO and Treatment Medium, the plates were spun at 300×g for 30 seconds, and then left in an incubator for 72 hours.
(§2) At the end of the treatment duration, cell viability was quantified with CellTiter-Glo 2.0 reagent (Promega Cat #G9243). For this purpose, plates were equilibrated to room temperature for 30 minutes, and then 25 μL of CellTiter-Glo 2.0 reagent was added to cells in the plate wells. Plates were then agitated on a shaker for two minutes at 500 rpm and subsequently incubated at room temperature for 10 minutes. Following incubation, the plates were spun at 3000×g for 30 seconds, then sealed with an optical adhesive cover, and luminescence readings were measured with an EnVision Plate Reader.
(§3) Data was normalized using zero luminescence for baseline. A four-parameter non-linear regression curve fit was applied to dose-response data in GraphPad Prism data analysis software to determine the half-maximal growth inhibitory concentration (GI50) for each test compound.

[2] = system: T-Rex 293 cell line SC3 cells lacking increased expression of androgen receptor protein; assay: Cellular growth inhibition, T-Rex 293 SC3 cells lacking increased androgen receptor expression (no doxycycline), CellTiter-Glo; assay type: cell-based; details: T-Rex 293 SC3 cells lacking increased androgen receptor expression (not exposed to doxycycline), 72 hours, CellTiter-Glo; read-out: GI50
Method: (§4) The following types of cells were prepared for this experiment: (i) a T-Rex 293 cell line having increased expression of androgen receptor protein due to exposure to doxycycline and (ii) a T-Rex 293 cell line lacking increased expression of androgen receptor protein. Ability of the test compounds to inhibit proliferation of the foregoing cell types was evaluated according to the procedures set forth below.
(§5) The doxycycline-inducible androgen receptor protein expressing cell line was established using the following protocol: T-Rex 293 cells were purchased from Invitrogen (Cat #R71007) and transfected using Lipofectamine 2000 with the wild-type androgen receptor protein sequence cloned into the pcDNA4/TO vector. Transfected cells were selected using 400 μg/mL Zeocin (Invitrogen Cat #R25001). Following selection, single clones were raised and maintained in Dulbecco's Modified Eagle Medium (DMEM) supplemented with 10% w/w Tetracycline-free fetal bovine serum (FBS) and 250 μg/mL Zeocin. Clones were analyzed for expression of androgen receptor protein in the presence and absence of 10 ng/ml doxycycline (Sigma Cat #D9891), and a single doxycycline-inducible clone (hereinafter “SC3”) was selected for use in downstream assays.
(§6) The SC3 cells were seeded on poly-D-lysine coated, black clear-bottom 384-well plates at 2500/well, in 25 μL Phenol Red Free Dulbecco's Modified Eagle Medium (DMEM) supplemented with 10% w/w charcoal-dextran treated fetal bovine serum (FBS) and 1% w/w pen-strep, with or without 10 ng/mL doxycycline. Pen-Strep is a commercially available mixture of penicillin G and streptomycin, which is used in mammalian cell culture media to prevent bacterial contamination. Phenol Red Free Dulbecco's Modified Eagle Medium (DMEM) supplemented with 10% w/w charcoal-dextran treated fetal bovine serum (FBS) and 1% w/w pen-strep, with or without 10 ng/mL doxycycline is herein referred to as Treatment Medium. Following seeding of cells in the plates, the plates were spun at 300×g for 30 seconds, then equilibrated to room temperature for 30 minutes, and then deposited in a humidified tissue culture incubator maintained at 37° C. with 5% CO2.
as §1, §2, §3

[3] = system: T47D cells; assay: Cellular growth inhibition assay for T47D cells, CellTiter-Glo; assay type: cell-based, human; details: 72 hours treatment, CellTiter-Glo 2.0
Method: T47D cells were purchased from American Type Cell Culture (ATCC Cat #HTB-133) and then seeded on poly-D-lysine coated, black clear-bottom 384-well plates at 3000/well in 25 μL Dulbecco's Modified Eagle Medium (DMEM) supplemented with 10% w/w Fetal bovine serum (FBS), 0.2 units/mL recombinant human insulin (Gibco Cat #12585014), and 1% w/w Pen-Strep. Pen-Strep is a commercially available mixture of penicillin G and streptomycin, which is used in mammalian cell culture media to prevent bacterial contamination. Dulbecco's Modified Eagle Medium (DMEM) supplemented with 10% w/w fetal bovine serum (FBS), 0.2 units/mL recombinant human insulin, and 1% w/w Pen-Strep is herein referred to as Treatment Medium. Following seeding of cells in the plates, the plates were spun at 300×g for 30 seconds, then equilibrated to room temperature for 30 minutes, and then deposited in a humidified tissue culture incubator maintained at 37° C. with 5% CO2.
as §1
as §2, with “Reader (Perkin Elmer).” for “Reader.”
as §3

[4] = system: T-Rex 293 cell line SC3 cells having increased expression of androgen receptor protein; assay: Cellular growth inhibition, T-Rex 293 SC3 cells with increased androgen receptor expression (doxycycline), CellTiter-Glo; assay type: cell-based; details: T-Rex 293 SC3 cells with increased androgen receptor expression (exposed to 10 ng/mL doxycycline), 72 hours, CellTiter-Glo; read-out: GI50
Method: as §4, §5, §6, §1, §2, §3

Row | Structure (SMILES) | GI50 ([1]; Homo sapiens) [nM] | GI50 [2] [nM] | GI50 ([3]; Homo sapiens) [nM] | GI50 [4] [nM] | GI50 [1] [nM] | GI50 [3] [nM]
1 | CCS(=O)(=O)Nc1ccc(Oc2cccc(N3CC(N4CCN(c5ccc(C(=O)N[C@H]6CC[C@H](Oc7ccc(C#N)c(Cl)c7)CC6)nn5)CC4)C3)c2F)c(-c2cn(C)c(=O)c3[nH]ccc23)c1 [I-12] | < 500 | > 3000 | < 500 | < 500 | – | –
2 | CCS(=O)(=O)Nc1ccc(Oc2cccc(CCC3CCN(c4ccc(C(=O)N[C@H]5CC[C@H](Oc6ccc(C#N)c(Cl)c6)CC5)nn4)CC3)c2F)c(-c2cn(C)c(=O)c3[nH]ccc23)c1 [I-21] | < 500 | > 3000 | < 500 | < 500 | – | –
3 | CCS(=O)(=O)Nc1ccc(Oc2cccc(COC3CCN(c4ccc(C(=O)N[C@H]5CC[C@H](Oc6ccc(C#N)c(Cl)c6)CC5)nn4)CC3)c2F)c(-c2cn(C)c(=O)c3[nH]ccc23)c1 [I-26] | < 500 | > 3000 | < 500 | < 500 | – | –
4 | CCS(=O)(=O)c1ccc(Oc2ccc(OCC3CCN(c4ccc(C(=O)N[C@H]5CC[C@H](Oc6ccc(C#N)c(Cl)c6)CC5)nn4)CC3)cc2)c(-c2cn(C)c(=O)c3[nH]ccc23)c1 [I-41] | – | < 500 | – | < 500 | < 500 | < 500
5 | CN(CCCCc1ccc(Oc2ccc(C(C)(C)O)cc2-c2cn(C)c(=O)c3[nH]ccc23)cc1)c1ccc(C(=O)N[C@H]2CC[C@H](Oc3ccc(C#N)c(Cl)c3)CC2)nn1 [I-122] | – | – | – | – | < 500 | < 500
6 | Cn1cc(-c2cc(C(C)(C)O)ccc2Oc2ccc(CCCC3CCN(c4ccc(C(=O)N[C@H]5CC[C@H](Oc6ccc(C#N)c(Cl)c6)CC5)nn4)CC3)cc2)c2cc[nH]c2c1=O [I-124] | < 500 | – | < 500 | – | – | –
7 | Cn1cc(-c2cc(C3(O)COC3)ccc2Oc2ccc(OCC3CCN(c4ccc(C(=O)NC5CCC(Oc6ccc(C#N)c(Cl)c6)CC5)nn4)CC3)cc2)c2cc[nH]c2c1=O (centres unmarked) [I-236, N-[4-(3-chloro-4-cyano-phenoxy)cyclohexyl]-6-[4-[[4-[4-(3-hydroxyoxetan-3-yl)-2-(6-methyl-7-oxo-1H-pyrrolo[2,3-c]pyridin-4-yl)phenoxy]phenoxy]methyl]-1-piperidyl]pyridazine-3-carboxamide] | – | > 3000 | – | < 500 | < 500 | –
8 | Cn1cc(-c2cc(CS(C)(=O)=O)ccc2Oc2ccc(CCC3CCN(c4ccc(C(=O)NC5CCC(Oc6ccc(C#N)c(Cl)c6)CC5)nn4)CC3)cc2)c2cc[nH]c2c1=O (centres unmarked) [I-237, N-[4-(3-chloro-4-cyano-phenoxy)cyclohexyl]-6-[4-[2-[4-[2-(6-methyl-7-oxo-1H-pyrrolo[2,3-c]pyridin-4-yl)-4-(methylsulfonylmethyl)phenoxy]phenyl]ethyl]-1-piperidyl]pyridazine-3-carboxamide] | < 500 | < 500 | – | < 500 | – | –
9 | CCS(=O)(=O)c1ccc(-c2cn(C)c(=O)c3[nH]ccc23)c(-n2cc(CCC3CCN(c4ccc(C(=O)NC5CCC(Oc6ccc(C#N)c(Cl)c6)CC5)nn4)CC3)ncc2=O)c1 (centres unmarked) [I-238, N-[4-(3-chloro-4-cyano-phenoxy)cyclohexyl]-6-[4-[2-[4-[5-ethylsulfonyl-2-(6-methyl-7-oxo-1H-pyrrolo[2,3-c]pyridin-4-yl)phenyl]-5-oxo-pyrazin-2-yl]ethyl]-1-piperidyl]pyridazine-3-carboxamide] | < 500 | > 3000 | – | > 3000 | – | –
10 | Cn1cc(-c2cc(Br)ccc2Oc2ccc(CCC3CCN(c4ccc(C(=O)NC5CCC(Oc6ccc(C#N)c(Cl)c6)CC5)nn4)CC3)cc2)c2cc[nH]c2c1=O (centres unmarked) [I-241, 6-[4-[2-[4-[4-bromo-2-(6-methyl-7-oxo-1H-pyrrolo[2,3-c]pyridin-4-yl)phenoxy]phenyl]ethyl]-1-piperidyl]-N-[4-(3-chloro-4-cyano-phenoxy)cyclohexyl]pyridazine-3-carboxamide] | < 500 | > 3000 | – | < 500 | – | –
11 | CCS(=O)(=O)Nc1ccc(Oc2ccc(CCC3CCN(c4ccc(C(=O)NC5CCC(Oc6ccc(C#N)c(Cl)c6)CC5)nn4)CC3)c(F)c2)c(-c2cn(C)c(=O)c3ccccc23)c1 (centres unmarked) [I-242, N-[4-(3-chloro-4-cyano-phenoxy)cyclohexyl]-6-[4-[2-[4-[4-(ethylsulfonylamino)-2-(2-methyl-1-oxo-4-isoquinolyl)phenoxy]-2-fluoro-phenyl]ethyl]-1-piperidyl]pyridazine-3-carboxamide] | < 500 | > 3000 | – | < 500 | – | –
12 | CCS(=O)(=O)c1ccc(Oc2ccc(CCC3CCN(c4ccc(C(=O)NC5CCC(Oc6ccc(C#N)c(Cl)c6)CC5)nn4)CC3)c(F)c2)c(-c2cn(C)c(=O)c3ccccc23)c1 (centres unmarked) [I-243, N-[4-(3-chloro-4-cyano-phenoxy)cyclohexyl]-6-[4-[2-[4-[4-ethylsulfonyl-2-(2-methyl-1-oxo-4-isoquinolyl)phenoxy]-2-fluoro-phenyl]ethyl]-1-piperidyl]pyridazine-3-carboxamide] | < 500 | > 3000 | – | < 500 | – | –
13 | Cn1cc(-c2cc(C(C)(C)O)ccc2OC2CC(OCC3CCN(c4ccc(C(=O)NC5CCC(Oc6ccc(C#N)c(Cl)c6)CC5)nn4)CC3)C2)c2ccccc2c1=O (centres unmarked) [I-247, N-[4-(3-chloro-4-cyano-phenoxy)cyclohexyl]-6-[4-[[3-[4-(1-hydroxy-1-methyl-ethyl)-2-(2-methyl-1-oxo-4-isoquinolyl)phenoxy]cyclobutoxy]methyl]-1-piperidyl]pyridazine-3-carboxamide] | < 500 | > 3000 | – | < 500 | – | –
14 | Cn1cc(-c2ccccc2Oc2ccc(OCC3CCN(c4ccc(C(=O)N[C@H]5CC[C@H](Oc6ccc(C#N)c(Cl)c6)CC5)nn4)CC3)cc2)c2cc[nH]c2c1=O [I-255, N-[4-(3-chloro-4-cyano-phenoxy)cyclohexyl]-6-[4-[[4-[2-(6-methyl-7-oxo-1H-pyrrolo[2,3-c]pyridin-4-yl)phenoxy]phenoxy]methyl]-1-piperidyl]pyridazine-3-carboxamide] | < 500 | > 3000 | – | < 500 | – | –

Source: US20250388575A1, “HETEROBIFUNCTIONAL COMPOUNDS AND METHODS OF TREATING DISEASE” (Halda Therapeutics OpCo, Inc., priority 2022, published 2025)
